Data from paper PMC8717895 (Neuro-oncology Advances, 2021).
“Also recorded” adds a separate entry of the source. Read-outs that look alike come from different tables or passages of the source. Marks after values point to notes of the source that are not given here.

Type: in vivo, human
[1] = stratum A, Level 1 (100 mg/m^2), Grade 1/2
[2] = stratum A, Level 1 (100 mg/m^2), Grade 3/4
[3] = stratum A, Level 2 (130 mg/m^2), Grade 1/2
[4] = stratum A, Level 2 (130 mg/m^2), Grade 3/4
[5] = stratum A, Level 3 (170 mg/m^2), Grade 1/2
[6] = stratum A, Level 3 (170 mg/m^2), Grade 3/4
[7] = stratum A, Level 4 (220 mg/m^2), Grade 1/2
[8] = stratum A, Level 4 (220 mg/m^2), Grade 3/4

**Q.** Which results are given for `CC1(COc2ccc3c(c2)ncn3-c2ccc3cccc(N4CCC(N)CC4)c3n2)COC1` [crenolanib]?
**A.** Recommended pediatric phase II dosage (once daily with food, with or without RT): 170 mg/m^2; ALT increased [1]: 10 (83%); AST increased [1]: 6 (50%); Abdominal pain [1]: 2 (17%); Alkaline phosphatase increased [1]: 1 (8%); Anemia [1]: 3 (25%); Anorexia [1]: 1 (8%); Diarrhea [1]: 2 (17%); Dyspepsia [1]: 2 (17%); GGT increased [1]: 5 (42%); Headache [1]: 0; Hematuria [1]: 3 (25%); Hypermagnesemia [1]: 3 (25%); Hypernatremia [1]: 1 (8%); Hypoalbuminemia [1]: 7 (58%); Hypocalcemia [1]: 1 (8%); Hypokalemia [1]: 5 (42%); Hypophosphatemia [1]: 7 (58%); Lipase increased [1]: 5 (42%); Lymphocyte count decreased [1]: 2 (17%); Nausea [1]: 8 (67%); Neutrophil count decreased [1]: 0; Platelet count decreased [1]: 4 (33%); Proteinuria [1]: 4 (33%); Serum amylase increased [1]: 4 (33%); Stomach pain [1]: 1 (8%); Vomiting [1]: 8 (67%); White blood cell decreased [1]: 4 (33%); ALT increased [2]: 1 (8%); AST increased [2]: 0; Abdominal pain [2]: 0; Alkaline phosphatase increased [2]: 0; Anemia [2]: 1 (8%); Anorexia [2]: 0; Diarrhea [2]: 0; Dyspepsia [2]: 0; GGT increased [2]: 3 (25%); Headache [2]: 1 (8%); Hematuria [2]: 0; Hypermagnesemia [2]: 0; Hypernatremia [2]: 0; Hypoalbuminemia [2]: 0; Hypocalcemia [2]: 0; Hypokalemia [2]: 1 (8%); Hypophosphatemia [2]: 0; Lipase increased [2]: 2 (17%); Lymphocyte count decreased [2]: 8 (67%); Nausea [2]: 0; Neutrophil count decreased [2]: 5 (42%)^a; Platelet count decreased [2]: 1 (8%); Proteinuria [2]: 1 (8%); Serum amylase increased [2]: 2 (17%); Stomach pain [2]: 0; Vomiting [2]: 1 (8%); White blood cell decreased [2]: 5 (42%); ALT increased [3]: 2 (33%); AST increased [3]: 4 (67%); Abdominal pain [3]: 3 (50%); Alkaline phosphatase increased [3]: 3 (50%); Anemia [3]: 3 (50%); Anorexia [3]: 1 (17%); Diarrhea [3]: 3 (50%); Dyspepsia [3]: 0; GGT increased [3]: 5 (83%); Headache [3]: 1 (17%); Hematuria [3]: 2 (33%); Hypermagnesemia [3]: 1 (17%); Hypernatremia [3]: 1 (17%); Hypoalbuminemia [3]: 2 (33%); Hypocalcemia [3]: 2 (33%); Hypokalemia [3]: 1 (17%); Hypophosphatemia [3]: 3 (50%); Lipase increased [3]: 2 (33%); Lymphocyte count decreased [3]: 0; Nausea [3]: 5 (83%); Neutrophil count decreased [3]: 1 (17%); Platelet count decreased [3]: 3 (50%); Proteinuria [3]: 5 (83%); Serum amylase increased [3]: 0; Stomach pain [3]: 2 (33%); Vomiting [3]: 6 (100%); White blood cell decreased [3]: 3 (50%); ALT increased [4]: 2 (33%); AST increased [4]: 0; Abdominal pain [4]: 0; Alkaline phosphatase increased [4]: 0; Anemia [4]: 0; Anorexia [4]: 0; Diarrhea [4]: 0; Dyspepsia [4]: 0; GGT increased [4]: 0; Headache [4]: 1 (17%); Hematuria [4]: 0; Hypermagnesemia [4]: 0; Hypernatremia [4]: 0; Hypoalbuminemia [4]: 0; Hypocalcemia [4]: 0; Hypokalemia [4]: 1 (17%); Hypophosphatemia [4]: 0; Lipase increased [4]: 0; Lymphocyte count decreased [4]: 6 (100%); Nausea [4]: 0; Neutrophil count decreased [4]: 2 (33%); Platelet count decreased [4]: 0; Proteinuria [4]: 1 (17%); Serum amylase increased [4]: 1 (17%); Stomach pain [4]: 0; Vomiting [4]: 0; White blood cell decreased [4]: 2 (33%); ALT increased [5]: 4 (67%); AST increased [5]: 5 (83%); Abdominal pain [5]: 2 (33%); Alkaline phosphatase increased [5]: 2 (33%); Anemia [5]: 3 (50%); Anorexia [5]: 3 (50%); Diarrhea [5]: 3 (50%); Dyspepsia [5]: 1 (17%); GGT increased [5]: 4 (67%); Headache [5]: 0; Hematuria [5]: 3 (50%); Hypermagnesemia [5]: 3 (50%); Hypernatremia [5]: 2 (33%); Hypoalbuminemia [5]: 4 (67%); Hypocalcemia [5]: 1 (17%); Hypokalemia [5]: 2 (33%); Hypophosphatemia [5]: 3 (50%); Lipase increased [5]: 1 (17%); Lymphocyte count decreased [5]: 2 (33%); Nausea [5]: 5 (83%); Neutrophil count decreased [5]: 1 (17%); Platelet count decreased [5]: 2 (33%); Proteinuria [5]: 5 (83%); Serum amylase increased [5]: 3 (50%); Stomach pain [5]: 0; Vomiting [5]: 6 (100%); White blood cell decreased [5]: 4 (67%); ALT increased [6]: 2 (33%); AST increased [6]: 1 (17%); Abdominal pain [6]: 0; Alkaline phosphatase increased [6]: 0; Anemia [6]: 0; Anorexia [6]: 0; Diarrhea [6]: 0; Dyspepsia [6]: 0; GGT increased [6]: 2 (33%)^a; Headache [6]: 0; Hematuria [6]: 0; Hypermagnesemia [6]: 0; Hypernatremia [6]: 0; Hypoalbuminemia [6]: 0; Hypocalcemia [6]: 0; Hypokalemia [6]: 2 (33%); Hypophosphatemia [6]: 0; Lipase increased [6]: 0; Lymphocyte count decreased [6]: 4 (67%); Nausea [6]: 0; Neutrophil count decreased [6]: 0; Platelet count decreased [6]: 0; Proteinuria [6]: 0; Serum amylase increased [6]: 0; Stomach pain [6]: 0; Vomiting [6]: 0; White blood cell decreased [6]: 1 (17%); ALT increased [7]: 6 (75%); AST increased [7]: 7 (88%); Abdominal pain [7]: 1 (13%); Alkaline phosphatase increased [7]: 1 (13%); Anemia [7]: 6 (75%); Anorexia [7]: 2 (25%); Diarrhea [7]: 4 (50%); Dyspepsia [7]: 0; GGT increased [7]: 6 (75%); Headache [7]: 1 (13%); Hematuria [7]: 2 (25%); Hypermagnesemia [7]: 5 (63%); Hypernatremia [7]: 0; Hypoalbuminemia [7]: 6 (75%); Hypocalcemia [7]: 3 (38%); Hypokalemia [7]: 3 (38%); Hypophosphatemia [7]: 6 (75%); Lipase increased [7]: 2 (25%); Lymphocyte count decreased [7]: 0; Nausea [7]: 7 (88%); Neutrophil count decreased [7]: 1 (13%); Platelet count decreased [7]: 3 (38%); Proteinuria [7]: 5 (63%); Serum amylase increased [7]: 3 (38%); Stomach pain [7]: 0; Vomiting [7]: 8 (100%); White blood cell decreased [7]: 7 (88%); ALT increased [8]: 2 (25%)^a; AST increased [8]: 0; Abdominal pain [8]: 0; Alkaline phosphatase increased [8]: 0; Anemia [8]: 0; Anorexia [8]: 0; Diarrhea [8]: 0; Dyspepsia [8]: 0; GGT increased [8]: 1 (13%)^a; Headache [8]: 0; Hematuria [8]: 0; Hypermagnesemia [8]: 0; Hypernatremia [8]: 0; Hypoalbuminemia [8]: 0; Hypocalcemia [8]: 1 (13%); Hypokalemia [8]: 2 (25%); Hypophosphatemia [8]: 1 (13%); Lipase increased [8]: 0; Lymphocyte count decreased [8]: 8 (100%); Nausea [8]: 0; Neutrophil count decreased [8]: 0; Platelet count decreased [8]: 0; Proteinuria [8]: 0; Serum amylase increased [8]: 0; Stomach pain [8]: 0; Vomiting [8]: 0; White blood cell decreased [8]: 0; DLTs attributable to crenolanib during the DLT observation period (stratum A, dose level 1): grade 4 neutropenia; DLTs attributable to crenolanib during the DLT observation period (stratum A, dose level 3): grade 3 gamma-glutamyl transferase (GGT) elevation; DLTs attributable to crenolanib during the DLT observation period (stratum A, dose level 4): grade 3 GGT elevation; also recorded: grade 3 ALT elevation; patients having grade 3/4 elevations of ALT, AST, GGT, or alkaline phosphatase (stratum A, during and after the DLT period): 28%; Maximum tolerated dose (MTD) (stratum A, once daily during and after RT, pediatric): 170 mg/m^2; Most common grade 3/4 toxicity (stratum A, resolved with drug interruption): leukopenia
